Measured values reported in patent publication US11446253B2, “Ionic liquids for internal delivery” (priority 2017, dated 2022).
“And” between values parts separate entries of the source, which are not always exact repeats. Equal entries are not always repeated.

Columns and labels:
[1] = system: non-diabetic male Wistar rats; assay: In vivo bioactivity of insulin isolated from CAGE after storage; design: species or system rat; conditions: fresh, 1 U/kg subcutaneous, listed as Freshly prepared insulin solution
Excerpt: Prior to insulin injections, rats were fasted overnight but given free access to water and fasting continued throughout the study to eliminate variability in blood glucose due to food consumption. The results were plotted as % change in blood glucose compared to initial level vs time.

[2] = system: non-diabetic male Wistar rats; assay: Blood glucose lowering after intrajejunal administration; type: in vivo, rat
Description: Before the start of the study, the rats were anesthetized, abdominal hair clipped and the area prepped for surgery using 70% ethanol and betadine. An incision was made in the abdomen to expose the intestine. […] Each formulation was tested in 6 rats with the exception of saline which was tested in only 3 rats. Thereafter, intestinal section was placed back into the abdomen and the muscle and skin sutured. Blood glucose was determined using a commercial glucose meter in the beginning and at every 0.5 h till the end of study at 5 h. The animals remained anesthetized throughout the study, at the end of which they were euthanized and the intestinal section around the injection site was removed for further histological examination to determine toxicity, if any. […] The results were plotted as % change in blood glucose levels with respect to initial reading at t=0 vs time.
Before the start of the study, the rats were anesthetized, abdominal hair clipped, and the surgery area was prepped using 70% ethanol and betadine. An incision was made in the abdomen to expose the intestine. […] The time zero blood glucose was taken after the intestine was exposed i.e. immediately prior to the injections. Each formulation was tested in 6 rats with the exception of saline which was tested in only 3 rats. Thereafter, intestinal section was placed back into the abdomen and the muscle and skin sutured. Blood glucose was determined using a commercial glucose meter at the beginning and at every 0.5 h till the end of study at 5 h. Loss in body temperature in the animals during anesthesia was prevented by placing the animals on temperature controlled warming pads prior to surgery followed by additional towel cover after surgery. The animals remained anesthetized throughout the study and were euthanized after 5 h. At the end of study at 5 h, the intestinal section around the injection site was removed for further histological examination to determine toxicity, if any. […] The results were plotted as % change in blood glucose levels with respect to initial reading vs time. In addition, the saline group was considered as fasting control and graphs were plotted after subtracting blood glucose levels of the saline group.

[3] = Serum insulin pharmacokinetics (human insulin ELISA); conditions: for AUCtotal: insulin-CAGE 5 U/kg intrajejunal, insulin 2 U/kg subcutaneous
Description: Standard protocol was followed for separation of serum from whole blood. Briefly, the blood samples were left undisturbed at RT for 15-30 minutes to allow clot formation, followed by centrifugation at 2,000 g for 10 minutes.
Fasting prior to anti-diabetic efficacy studies is routinely done (29, 62, 63). It helps avoid fluctuations in the blood glucose levels as a result of eating, which can vary between animals based on the amount and time of food intake. All animal experiments were performed in accordance with the University of California Santa Barbara animal care committee guidelines and to the Guide for the Care and Use of Animals of the Institute of Laboratory Animal Resources, National Research Council. […] The time zero blood glucose was taken after the intestine was exposed i.e. immediately prior to the injections. […] Loss in body temperature in the animals during anesthesia was prevented by placing the animals on temperature controlled warming pads prior to surgery followed by additional towel cover after surgery. The animals remained anesthetized throughout the study and were euthanized after 5 h. […] In addition, the saline group was considered as fasting control and graphs were plotted after subtracting blood glucose levels of the saline group. […] Standard protocol was followed for separation of serum from whole blood. Briefly, blood samples were left undisturbed at RT for 15-30 minutes to clot, followed by centrifugation at 2,000 g for 10 minutes. […] Pharmacodynamic bioavailability was calculated using AUC obtained from efficacy plots.

[4] = system: non-diabetic male Wistar rats; assay: Blood glucose lowering after oral administration in enterically coated capsules; type: in vivo, rat
Description: (§1) For the oral efficacy study, adult non-diabetic male Wistar rats were fasted overnight but given free access to water. On the next day, the capsules were administered to the rats using an oral gavage followed by subcutaneous administration of 5 mg/kg metoclopramide HCl to promote gastric emptying. Blood glucose was thereafter measured using a commercial glucose meter and subsequently every hour till 12 h. Rats were fasted throughout the period of study. […] In addition, the efficacy of subcutaneously injected 2 U/kg insulin-saline was also evaluated. […] The results were plotted as percent change in blood glucose level vs time.
as §1, with “To determine the efficacy of insulin-CAGE administered through the oral route, elongated size 9 capsules were used. […] Following this, the capsules were enterically coated three times with 12.5% w/v Eudragit® L-100 dissolved in isopropanol. For” for “For”, “Next” for “On the next”, “was” for “was also”, “time. […] After 12 h of study, rats were euthanized, and small intestinal sections were collected for tissue histology.” for “time.”

[5] = system: Caco-2 cells; assay: Tight junction integrity (TEER) in Caco-2 cells; type: cell-based, human; conditions: FITC-insulin with 10 mM CAGE or saline, 5 h
Description: […] Furthermore, TEER was measured at every time point when aliquots were withdrawn from the transwells and plotted as % change from initial value vs time.
TEER values were recorded for each insert. […] TEER was plotted as % change from initial value vs time.

[6] = system: Caco-2 monolayers; assay: FITC-insulin transport across Caco-2 monolayers; type: cell-based, human; conditions: Caco-2 monolayers, end of study at 5 h, 10 mM CAGE or saline
Description: TEER was measured on a regular basis and when it reached above 200 ohms·cm^2, indicating sufficient tight junction integrity between cells, transport study was performed.
(§2) After the end of study at 5 h, the FITC-insulin concentration in the aliquots were measured using a plate reader (Tecan, Infinite M1000, Mannedorf, Switzerland) at 495/520 nm excitation/emission wavelengths and plotted as % FITC-insulin transport vs time. Furthermore, TEER was measured at every time point when aliquots were withdrawn from the transwells and plotted as % change from initial value vs time.
TEER was measured on a regular basis and when it reached above 200 ohms. cm2, indicating sufficient tight junction integrity between cells, transport study was performed.
as §2, with “[…]” for “% change from initial value”

[7] = system: Non-diabetic Wistar rats; assay: Consecutive oral dosing of neat CAGE capsule and insulin capsule; type: in vivo, rat; conditions: 10 U/kg insulin oral, 10 h
Description: Non-diabetic Wistar rats were fasted overnight for 8 h but given access to water ad libitum. […] The blood glucose for time 0 was evaluated at this point. […] Fasting was continued with free access to water till the end of study at 12 h and blood glucose was evaluated at various time points. The results were plotted as % change in blood glucose compared to initial level vs time.

[8] = biological target: T1, bovine trypsin (Bos taurus, UniProt P00760); assay: Trypsin-mediated degradation of insulin (LC-MS); type: biochemical; conditions: incubated with trypsin, 37° C., 24 h
T1 construct: purchased MP Biomedicals (Santa Ana, Calif., USA)
T1 sequence (P00760 24-246): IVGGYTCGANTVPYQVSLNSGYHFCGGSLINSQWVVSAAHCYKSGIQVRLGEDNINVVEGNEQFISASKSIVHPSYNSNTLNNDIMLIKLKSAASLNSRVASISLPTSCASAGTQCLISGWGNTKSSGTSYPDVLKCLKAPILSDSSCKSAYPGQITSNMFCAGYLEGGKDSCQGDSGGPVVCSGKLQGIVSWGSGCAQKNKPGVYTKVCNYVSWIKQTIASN
Description: Immediately after vortex (time=0 h; t0) and at predetermined time intervals, 0.1 mL of the insulin-trypsin mixture was aliquoted, and the enzyme activity was inhibited by the addition of 0.1 mL of ice-cold 0.1% trifluoroacetic acid/acetonitrile solution (69:31, v/v). The samples were analyzed by liquid chromatography-mass spectrometry (LC-MS) to determine the amount of intact insulin in the solution at different times. An Agilent 1290/6140 Ultra High Performance Liquid Chromatography/Mass Spectrometer consisting of a 1290 Infinity LC™ binary pump, thermostat column compartment, 1290 Infinity autosampler, an Agilent 1290 diode array detector and an Agilent 6140 quadrupole MSD system was used for the analyses. For an analysis, 3 μL of the samples were injected into an Agilent 300SB-C18 2.1×75 mm, 5 μm, maintained at 25° C. and eluted with a mobile phase consisting of a gradient mixture of deionized water with 0.1% formic acid (FA) (A) and acetonitrile (B) with 0.1% FA. A gradient of 95-5% (0 min), 0-100% (10 min), 0-100% (15 min), 95-5% (15.1 min), 95-5% (18 min) A:B was used for each run. […] All experiments were conducted in triplicate and are reported are mean±standard deviation.

[9] = stored at 4° C.; cited from earlier work

insulin: human insulin (Sigma-Aldrich) in saline or buffer, comparator
blood glucose, % of initial level ([1]; 1 h): 50.73±2.47% and 51±2% | drop in blood glucose ([1]; 1 h): 50% and 49% | blood glucose, % of initial level ([1]; 2 h): 49.59±4.4% and 50±4% | blood glucose, % of original level ([1]; 5 h): 92.05±4.8% and 92±5% | blood glucose, % of initial level ([2]; 2 U/kg subcutaneous, 1 h): 48.76±7.55% and 49±8% | maximum drop in blood glucose ([2]; 2 U/kg subcutaneous, 1 h): 51% | blood glucose, % of initial level ([2]; 2 U/kg subcutaneous, 5 h): 101.61±6.69% and 101±7% | decrease in blood glucose of control groups, % of initial level ([2]; intrajejunal controls (neat CAGE, 3 U/kg insulin-saline), 5 h): about 25% | serum insulin concentration ([3]; 3 U/kg intrajejunal): hardly increased | serum insulin level with time ([3]; 5 U/kg intrajejunal): did not show any increase | AUCtotal ([3]; Table 1): 237.6 μIU · h/ml | AUCtotal ([3]; Table 2): 237.6 μIU · h/mL | blood glucose, % of initial level ([4]; 2 U/kg subcutaneous, 1 h): 51.43±5.25% and 51±5% | drop in blood glucose ([4]; 2 U/kg subcutaneous, 1 h): 50% and 49% | decrease in blood glucose of formulation controls ([4]; oral controls, 12 h): about 25% | TEER, % of initial value [5]: 98.5±2.64% | FITC-insulin transport [6]: 10% | blood glucose drop [7]: around 34% | blood glucose, % of initial levels [7]: 66.9±7.1% | intact insulin remaining [8]: 5±0.4% | stability at 4° C. [9]: 2 to 7 days
